Experiment [1] relates to PAF-induced platelet aggregation. The experiment can be described thus: Inhibition of PAF-induced platelet aggregation in vitro (platelet-rich plasma). Particulars: Oryctolagus cuniculus, 5 min, rabbit plasma, platelet count 6×10^5/μl, C16:0 PAF 1×10^-8-3×10^-8 M final. Type of experiment: cell-based. As for the experimental part:
Inhibition of PAF-induced platelet aggregation in vitro
Blood was drawn from a rabbit and immediately mixed with one nineth of its volume of a 3.8% w/v aqueous solution of sodium citrate. A platelet-rich plasma (PRP) was obtained as a supernatant by centrifugation of the blood at 150×g for 15 minutes at room temperature. The precipitated fraction was centrifuged for a further 15 minutes at 1000×g to obtain a platelet-poor plasma (PPP) as a supernatant. Appropriate proportions of this PRP and PPP were mixed to obtain a plasma having a platelet count of 6×10^5 /μl.
Platelet aggregation was determined by the method of Born et al. [G. V. R. Born et al., J. Physiol., 62, 67-68 (1962)] where an increase in light transmission is measured by the aggregometer.
25 μl of a saline solution containing the compound to be tested at an appropriate concentration was added to 250 μl of the above plasma. One minute thereafter. […] The aggregation resulting from the addition of PAF alone, without the prior addition of the test compound was taken as 100%.
The IC50 values (i.e. concentrations to inhibit aggregation by 50%) were calculated from dose-response curves and are shown in Table 6.

Experiment [2] concerns PAF-induced hypotension. The experiment can be described thus: Inhibition of PAF-induced hypotension (rat, i.v.). The format is in vivo, rats of the Wistar-Imamichi strain. Particulars: 50% inhibitory dose, intravenous, cumulative doses, 10 ng/kg i.v. 1-C16:0 PAF, Inactin anesthesia, rats, read-out: Inhibition of Hypotension ID50. As for the experimental part:
Inhibition of PAF-induced hypotension
The test animals employed were rats of the Wistar-Imamichi strain, each weighing between 350 and 450 g.
Under Inactin anesthesia (90 mg/kg administered intraperitoneally) the left femoral artery and vein of each test animal were cannulated to enable the arterial blood pressure to be monitored continuously and for drug administration, respectively. At intervals of about 5 minutes, each animal was given by intravenous injection 10 ng/kg of synthetic 1-C16:0 PAF until a steady hypotensive response was achieved. At this time, the drug to be tested was administered by intravenous injection in doses increasing cumulatively by a factor of 3. Within 1 minute of this injection, a further 10 ng/kg of the 1-C16:0 PAF was administered. The hypotensive response to PAF was inhibited by the test drug in a dose-related manner.
The PAF was administered in the form of a solution in physiological saline containing 0.25% w/v bovine serum albumin. The test drugs were dissolved in physiological saline containing either 0.25% w/v BSA or 20% v/v ethanol.
The 50% inhibitory dose (ID50) was calculated from the dose-response curve constructed for the inhibition of PAF-induced hypotension.
This test was carried out using compounds of the invention, as well as the prior art compound CV-3988, disclosed in U.S. Pat. No. 4,408,052 and represented by the foregoing formula (B).

A word on the IC50: it is the concentration at which inhibition is half-maximal.

Structures can show the parent of a compound that is named as a salt.

In experiment [1], `CCCCCCCCCCCCCCCc1cc(OCC(COC(=O)NCCCCC[n+]2ccsc2)Oc2cc(C)on2)no1` (racemic) [Example 25, (2RS)-1-O-(5-Pentadecyl-3-isoxazolyl)-2-O-(5-methyl-3-isoxazolyl)-3-O-{N-(5-thiazoliopentyl)carbamoyl}glycerol bromide] displayed a half-inhibitory concentration (IC50) of 270 nM. Besides, the ED50 in experiment [2] was found to be 0.055 mg/kg.
As to `CCCCCCCCCCCCCCCCCNC(=O)OCC(COP(=O)([O-])OCC[n+]1ccsc1)Oc1cc(C)on1` (racemic) [Example 18, (2RS)-3-(N-Heptadecylcarbamoyloxy)-2-(5-methyl-3-isoxazolyloxy)propyl 2-thiazolioethyl phosphate (inner salt)], in experiment [1], 4800 nM corresponded to half-maximal inhibition (IC50). In experiment [2], the ED50 was found to be 0.081 mg/kg.
In the same order, the values of `CCCCCCCCCCCCCCCc1cc(OCC(COCCCCCCC[n+]2ccsc2)Oc2cc(C)on2)no1` (racemic) [Example 24, (2RS)-1-O-(5-Pentadecyl-3-isoxazolyl)-2-O-(5-methyl-3-isoxazolyl)-3-(7-thiazolioheptyl)glycerol methanesulfonate] are 310 nM and 0.03 mg/kg.
In the same order, the values of `CCCCCCCCCCCCCCCCCNC(=O)OCC(COP(=O)([O-])OCC[n+]1ccsc1)Oc1ccon1` (racemic) [Example 13, (2RS)-3-(N-Heptadecylcarbamoyloxy)-2-(3-isoxazolyloxy)propyl 2-thiazolioethyl phosphate (inner salt)] are 3400 nM and 0.096 mg/kg.
In turn, `CCCCCCCCCCCCCCCc1cc(OCC(COP(=O)([O-])OCCCCCC[n+]2ccsc2)Oc2cc(C)on2)no1` (racemic) [Example 23, (2RS)-3-(5-Pentadecyl-3-isoxazolyloxy)-2-(5-methyl-3-isoxazolyloxy)propyl 6-thiazoliohexyl phosphate (inner salt)] returned an IC50 in experiment [1] of 1400 nM. For the same compound, in experiment [2], the ED50 came out at 0.067 mg/kg.
Regarding `CCCCCCCCCCCCCCCCCNC(=O)OCC(COC(=O)NCCCCC[n+]1ccsc1)Oc1cc(C)on1.[Br-]` (racemic) [Example 33, 3-{5-[(2RS)-3-(N-Heptadecylcarbamoyloxy)-2-(5-methyl-3-isoxazolyloxy)propoxycarbonylamino]pentyl}thiazolium bromide], the IC50 in experiment [1] was found to be 310 nM. Moreover, the ED50 in experiment [2] was 0.086 mg/kg.
Consider `CCCCCCCCCCCCCCCCc1cc(OC[C@H](COC(=O)N[C@H](CCCCC[n+]2ccsc2)C(=O)OCC)Oc2ccon2)no1.CS(=O)(=O)[O-]` (racemic) [Example 41, 3-{(6RS)-6-Ethoxycarbonyl-6-[(2RS)-3-(5-hexadecyl-3-isoxazolyloxy)-2-(3-isoxazolyloxy)propoxy]carbonylaminohexyl}thiazolium methanesulfonate], for which, in experiment [1], it took 350 nM to reach half-maximal inhibition (IC50). In addition, the ED50 in experiment [2] was 0.054 mg/kg.
For `CCCCCCCCCCCCCCCCCCNC(=O)OCC(COP(=O)([O-])OCC[n+]1ccsc1)OC` (stereo not drawn) [CV-3988, reference compound], in that order: 9800 nM and 0.415 mg/kg.
For `CCCCCCCCCCCCCCCCCNC(=O)OCC(COC(=O)N(Cc1cccc[n+]1CC)C(C)=O)Oc1ccon1` (racemic) [Example 38, 2-{N-Acetyl-N-[(2RS)-3-(N-Heptadecylcarbamoyloxy)-2-(3-isoxazolyloxy)propoxycarbonyl]aminomethyl}-1-ethylpyridinium chloride], in that order: 81 nM and 0.004 mg/kg.
